Measurements reported in ChEMBL document CHEMBL1909046, “DrugMatrix in vitro pharmacology data”.

Legend:
Histamine H2 receptor = Histamine H2 receptor (Homo sapiens, UniProt P25021); format: cell membranes, CHO-K1, Membrane; conditions: cho-k1; further: in other assays of this panel Not Active means under 50% inhibition at 10 µM
D(3) dopamine receptor = D(3) dopamine receptor (Homo sapiens, UniProt P35462); assay: DRUGMATRIX: Dopamine D3 radioligand binding (ligand: [3H] Spiperone); format: cell membranes, CHO, Membrane; conditions: cho
[1] = DRUGMATRIX: beta-Lactamase enzyme inhibition (substrate: Nitrocefin); parameters: species or system Bacillus cereus; conditions: Not Active = under 50% inhibition at 10 µM
[2] = DRUGMATRIX: Glutamate, Kainate radioligand binding (ligand: [3H] Kainic acid); format: cell membranes, Rattus norvegicus, Wistar, Brain, Membrane; conditions: Not Active = under 50% inhibition at 10 µM
[3] = target: T1, C-X-C chemokine receptor type 1 (Homo sapiens, UniProt P25024); further: in other assays of this panel Not Active means under 50% inhibition at 10 µM
T1 sequence (P25024 whole entry): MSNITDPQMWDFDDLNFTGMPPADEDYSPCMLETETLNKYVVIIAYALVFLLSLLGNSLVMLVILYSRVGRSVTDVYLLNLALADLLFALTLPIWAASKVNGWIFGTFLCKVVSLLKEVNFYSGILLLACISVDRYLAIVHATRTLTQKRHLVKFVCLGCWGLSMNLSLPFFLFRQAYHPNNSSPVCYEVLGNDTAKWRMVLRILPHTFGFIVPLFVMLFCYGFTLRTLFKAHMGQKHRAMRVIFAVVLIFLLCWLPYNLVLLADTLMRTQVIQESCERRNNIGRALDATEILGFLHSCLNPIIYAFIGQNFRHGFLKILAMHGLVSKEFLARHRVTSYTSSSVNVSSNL

[4] = DRUGMATRIX: Imidazoline I2, Central radioligand binding (ligand: [3H] Idazoxan); format: cell membranes, Rattus norvegicus, Wistar, Cerebral cortex, Membrane; conditions: Not Active = under 50% inhibition at 10 µM
[5] = DRUGMATRIX: Platelet-Derived Growth Factor (PDGF) radioligand binding (ligand: [125I] PDGF); format: cell-based; conditions: nih3t3; Not Active = under 50% inhibition at 10 µM
D(4) dopamine receptor = target: T2, D(4) dopamine receptor (Homo sapiens, UniProt P21917); assay: DRUGMATRIX: Dopamine D4.2 radioligand binding (ligand: [3H] Spiperone); format: cell membranes, CHO-K1, Membrane; conditions: cho-k1; Not Active = under 50% inhibition at 10 µM
T2 sequence (P21917 whole entry): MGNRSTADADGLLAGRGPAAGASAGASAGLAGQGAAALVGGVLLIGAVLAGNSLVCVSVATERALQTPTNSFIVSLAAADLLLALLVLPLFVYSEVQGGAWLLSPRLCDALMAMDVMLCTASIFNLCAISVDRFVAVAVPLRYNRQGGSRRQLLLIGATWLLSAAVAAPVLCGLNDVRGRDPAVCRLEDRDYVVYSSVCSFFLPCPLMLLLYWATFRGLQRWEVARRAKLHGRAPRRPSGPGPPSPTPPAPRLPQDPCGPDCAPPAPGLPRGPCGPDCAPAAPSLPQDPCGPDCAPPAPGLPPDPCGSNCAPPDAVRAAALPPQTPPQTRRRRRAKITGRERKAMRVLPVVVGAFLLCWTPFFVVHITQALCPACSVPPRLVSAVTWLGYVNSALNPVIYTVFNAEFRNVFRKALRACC

[6] = target: 5-hydroxytryptamine receptor 6 (Homo sapiens, UniProt P50406); format: cell membranes, HeLa, Membrane; conditions: hela; further: in other assays of this panel Not Active means under 50% inhibition at 10 µM
[7] = DRUGMATRIX: Sodium/nucleoside co-transporter radioligand binding (ligand: nitrobenzylthioinosine); format: cell membranes, Cavia porcellus, Dunkin-Hartley, Cerebral cortex, Membrane; conditions: Not Active = under 50% inhibition at 10 µM
[8] = target: 5-hydroxytryptamine receptor 2B (Homo sapiens, UniProt P41595); format: cell membranes, CHO-K1, Membrane; conditions: cho-k1; further: in other assays of this panel Not Active means under 50% inhibition at 10 µM
[9] = target: Sodium-dependent noradrenaline transporter (Homo sapiens, UniProt P23975); assay: DRUGMATRIX: Norepinephrine Transporter radioligand binding (ligand: [125I] RTI-55); format: cell membranes, MDCK, Membrane; conditions: mdck; Not Active = under 50% inhibition at 10 µM
[10] = target: Beta-3 adrenergic receptor (Homo sapiens, UniProt P13945); assay: DRUGMATRIX: Adrenergic beta3 radioligand binding (ligand: [125I] Cyanopindolol); format: cell membranes, HEK293, Membrane; conditions: hek293; Not Active = under 50% inhibition at 10 µM
Thromboxane-A synthase = target: T3, Thromboxane-A synthase (Homo sapiens, UniProt P24557); assay: biochemical; format: tissue-based, Platelet; conditions: platelet
T3 sequence (P24557 whole entry): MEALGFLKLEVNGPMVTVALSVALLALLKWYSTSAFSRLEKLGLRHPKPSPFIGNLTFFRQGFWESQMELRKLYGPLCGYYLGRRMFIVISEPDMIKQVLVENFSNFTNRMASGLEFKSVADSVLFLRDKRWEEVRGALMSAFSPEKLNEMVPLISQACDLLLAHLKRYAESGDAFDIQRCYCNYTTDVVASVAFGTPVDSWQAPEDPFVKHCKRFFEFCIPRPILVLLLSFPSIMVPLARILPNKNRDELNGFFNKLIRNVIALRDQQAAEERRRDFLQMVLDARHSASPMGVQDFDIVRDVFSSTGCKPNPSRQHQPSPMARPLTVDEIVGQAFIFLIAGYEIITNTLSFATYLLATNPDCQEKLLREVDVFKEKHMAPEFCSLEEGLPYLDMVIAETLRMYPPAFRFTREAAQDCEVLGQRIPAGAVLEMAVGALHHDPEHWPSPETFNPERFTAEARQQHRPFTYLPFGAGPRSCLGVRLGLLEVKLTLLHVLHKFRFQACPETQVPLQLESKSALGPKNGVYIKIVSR

[11] = DRUGMATRIX: Glutamate, AMPA radioligand binding (ligand: [3H] AMPA); format: cell membranes, Rattus norvegicus, Wistar, Cerebral cortex, Membrane; conditions: Not Active = under 50% inhibition at 10 µM
[12] = DRUGMATRIX: GABAA, Chloride Channel, TBOB radioligand binding (ligand: [3H] TBOB); format: cell membranes, Rattus norvegicus, Wistar, Cerebral cortex, Membrane; conditions: Not Active = under 50% inhibition at 10 µM
Glycine receptor = Glycine receptor (Rattus norvegicus, UniProt P22771+P24524+P07727+P20781); format: cell membranes, Wistar, Spinal cord, Membrane; further: in other assays of this panel Not Active means under 50% inhibition at 10 µM

D(3) dopamine receptor, sequence (P35462 whole entry): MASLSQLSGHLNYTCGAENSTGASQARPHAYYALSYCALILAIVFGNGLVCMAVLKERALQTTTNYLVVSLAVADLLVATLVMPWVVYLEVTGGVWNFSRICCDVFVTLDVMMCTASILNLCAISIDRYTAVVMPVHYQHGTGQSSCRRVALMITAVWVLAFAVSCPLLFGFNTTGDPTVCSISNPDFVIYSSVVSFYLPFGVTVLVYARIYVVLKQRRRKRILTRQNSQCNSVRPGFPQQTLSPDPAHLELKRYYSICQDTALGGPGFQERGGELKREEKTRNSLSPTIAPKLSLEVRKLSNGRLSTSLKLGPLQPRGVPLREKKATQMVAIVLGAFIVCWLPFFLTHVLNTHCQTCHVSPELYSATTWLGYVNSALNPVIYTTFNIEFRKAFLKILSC
5-hydroxytryptamine receptor 6, sequence (P50406 whole entry): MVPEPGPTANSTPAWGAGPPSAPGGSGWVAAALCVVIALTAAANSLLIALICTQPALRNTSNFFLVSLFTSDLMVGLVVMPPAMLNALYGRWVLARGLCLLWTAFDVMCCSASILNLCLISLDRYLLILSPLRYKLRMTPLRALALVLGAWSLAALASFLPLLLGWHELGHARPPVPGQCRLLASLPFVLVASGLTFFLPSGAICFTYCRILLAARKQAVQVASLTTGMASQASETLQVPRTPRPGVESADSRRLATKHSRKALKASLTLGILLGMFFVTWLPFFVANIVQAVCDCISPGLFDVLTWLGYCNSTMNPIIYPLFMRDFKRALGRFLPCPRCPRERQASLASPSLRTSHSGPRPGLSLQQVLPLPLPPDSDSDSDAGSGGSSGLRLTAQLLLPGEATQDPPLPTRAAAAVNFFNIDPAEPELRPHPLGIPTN
Histamine H2 receptor, sequence (P25021 whole entry): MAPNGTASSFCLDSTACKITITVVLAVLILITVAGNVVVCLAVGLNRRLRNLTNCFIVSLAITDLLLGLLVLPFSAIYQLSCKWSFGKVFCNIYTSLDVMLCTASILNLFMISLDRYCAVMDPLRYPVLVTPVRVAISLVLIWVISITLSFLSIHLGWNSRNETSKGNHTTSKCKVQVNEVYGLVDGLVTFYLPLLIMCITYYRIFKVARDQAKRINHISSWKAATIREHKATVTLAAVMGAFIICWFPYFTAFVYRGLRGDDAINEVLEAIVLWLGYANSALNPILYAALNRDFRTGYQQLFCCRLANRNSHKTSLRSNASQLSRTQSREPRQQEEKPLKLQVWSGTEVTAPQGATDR
5-hydroxytryptamine receptor 2B, sequence (P41595 whole entry): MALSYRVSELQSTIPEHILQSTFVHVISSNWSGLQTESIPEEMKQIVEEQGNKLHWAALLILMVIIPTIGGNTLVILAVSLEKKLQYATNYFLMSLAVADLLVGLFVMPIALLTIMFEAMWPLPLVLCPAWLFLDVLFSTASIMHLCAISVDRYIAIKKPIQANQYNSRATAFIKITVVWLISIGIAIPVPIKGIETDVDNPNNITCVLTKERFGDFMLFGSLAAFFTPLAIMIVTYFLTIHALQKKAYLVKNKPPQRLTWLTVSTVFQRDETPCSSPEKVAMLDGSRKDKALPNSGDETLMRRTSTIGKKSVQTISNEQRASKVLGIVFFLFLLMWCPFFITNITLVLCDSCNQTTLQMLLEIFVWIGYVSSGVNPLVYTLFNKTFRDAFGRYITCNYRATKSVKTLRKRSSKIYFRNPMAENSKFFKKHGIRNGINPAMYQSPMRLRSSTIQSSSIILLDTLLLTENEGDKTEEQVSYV
Beta-3 adrenergic receptor, sequence (P13945 whole entry): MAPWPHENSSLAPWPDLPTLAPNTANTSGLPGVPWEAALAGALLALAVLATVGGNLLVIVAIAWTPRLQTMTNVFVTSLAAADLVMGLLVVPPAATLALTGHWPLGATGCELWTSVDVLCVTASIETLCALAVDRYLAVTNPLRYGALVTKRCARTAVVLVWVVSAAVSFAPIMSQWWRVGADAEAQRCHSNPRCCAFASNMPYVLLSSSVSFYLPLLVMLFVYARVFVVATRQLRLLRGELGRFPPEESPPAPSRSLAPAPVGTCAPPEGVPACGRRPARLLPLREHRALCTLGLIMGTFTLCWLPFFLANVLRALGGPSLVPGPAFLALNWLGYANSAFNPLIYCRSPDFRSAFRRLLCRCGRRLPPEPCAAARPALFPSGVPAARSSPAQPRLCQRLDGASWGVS
Sodium-dependent noradrenaline transporter, sequence (P23975 whole entry): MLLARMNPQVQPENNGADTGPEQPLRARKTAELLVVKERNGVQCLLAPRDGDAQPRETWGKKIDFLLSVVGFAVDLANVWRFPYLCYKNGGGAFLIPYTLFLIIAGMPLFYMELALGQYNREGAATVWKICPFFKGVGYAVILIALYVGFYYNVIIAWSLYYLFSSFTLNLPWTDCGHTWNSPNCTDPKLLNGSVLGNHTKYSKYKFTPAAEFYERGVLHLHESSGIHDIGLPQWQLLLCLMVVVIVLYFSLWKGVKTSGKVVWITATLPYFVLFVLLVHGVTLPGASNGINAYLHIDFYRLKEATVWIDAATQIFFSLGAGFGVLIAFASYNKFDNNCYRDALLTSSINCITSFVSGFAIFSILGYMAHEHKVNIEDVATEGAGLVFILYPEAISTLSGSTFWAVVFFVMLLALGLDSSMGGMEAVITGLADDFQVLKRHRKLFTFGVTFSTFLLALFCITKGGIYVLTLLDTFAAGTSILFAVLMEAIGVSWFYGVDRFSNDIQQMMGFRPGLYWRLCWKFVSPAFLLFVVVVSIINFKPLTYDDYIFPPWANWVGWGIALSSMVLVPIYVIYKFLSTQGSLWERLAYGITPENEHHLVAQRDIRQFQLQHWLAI

For CARBOPLATIN, the IC50 (Histamine H2 receptor) was “Not Active”, the Ki (Histamine H2 receptor) was “Not Active” and the IC50 (D(3) dopamine receptor) was “Not Active”. For the same substance, the Ki (D(3) dopamine receptor) was “Not Active”, the IC50 [1] was “Not Active” and the Ki [1] was “Not Active”. The IC50 [2] was “Not Active”, the Ki [2] was “Not Active” and the IC50 [3] was “Not Active”. For the same substance, the Ki [3] was “Not Active”, the IC50 [4] was “Not Active” and the Ki [4] was “Not Active”. For the same substance, the IC50 [5] was “Not Active”, the Ki [5] was “Not Active” and the IC50 (D(4) dopamine receptor) was “Not Active”. For the same substance, the Ki (D(4) dopamine receptor) was “Not Active”, the IC50 [6] was “Not Active” and the Ki [6] was “Not Active”. For the same substance, the IC50 [7] was “Not Active”, the Ki [7] was “Not Active” and the IC50 [8] was “Not Active”. For the same substance, the Ki [8] was “Not Active”, the IC50 [9] was “Not Active” and the Ki [9] was “Not Active”. For the same substance, the IC50 [10] was “Not Active”, the Ki [10] was “Not Active” and the IC50 (Thromboxane-A synthase) was “Not Active”. For the same substance, the Ki (Thromboxane-A synthase) was “Not Active”, the IC50 [11] was “Not Active” and the Ki [11] was “Not Active”. The IC50 [12] was “Not Active”, the Ki [12] was “Not Active” and the IC50 (Glycine receptor) was “Not Active”. For the same substance, the Ki (Glycine receptor) was “Not Active”.

In the case of CISPLATIN, the IC50 (Histamine H2 receptor) is reported as “Not Active”, the Ki (Histamine H2 receptor) is reported as “Not Active” and the IC50 (D(3) dopamine receptor) is reported as “Not Active”. For the same substance, the Ki (D(3) dopamine receptor) was “Not Active”, the IC50 [1] was “Not Active” and the Ki [1] was “Not Active”. For the same substance, the IC50 [2] was “Not Active”, the Ki [2] was “Not Active” and the IC50 [3] was “Not Active”. For the same substance, the Ki [3] was “Not Active”, the IC50 [4] was “Not Active” and the Ki [4] was “Not Active”. The IC50 [5] was “Not Active”, the Ki [5] was “Not Active” and the IC50 (D(4) dopamine receptor) was “Not Active”. For the same substance, the Ki (D(4) dopamine receptor) was “Not Active”, the IC50 [6] was “Not Active” and the Ki [6] was “Not Active”. The IC50 [7] was “Not Active”, the Ki [7] was “Not Active” and the IC50 [8] was “Not Active”. For the same substance, the Ki [8] was “Not Active”, the IC50 [9] was “Not Active” and the Ki [9] was “Not Active”. For the same substance, the IC50 [10] was “Not Active”, the Ki [10] was “Not Active” and the IC50 (Thromboxane-A synthase; read-out: IC50) was 9.35 µM. The IC50 [11] was “Not Active”, the Ki [11] was “Not Active” and the IC50 [12] was “Not Active”. The Ki [12] was “Not Active”, the IC50 (Glycine receptor) was “Not Active” and the Ki (Glycine receptor) was “Not Active”.

For GOLD SODIUM THIOMALATE, the IC50 (Histamine H2 receptor) was “Not Active”, the Ki (Histamine H2 receptor) was “Not Active” and the IC50 (D(3) dopamine receptor) was “Not Active”. For the same substance, the Ki (D(3) dopamine receptor) was “Not Active”, the IC50 [1] was “Not Active” and the Ki [1] was “Not Active”. For the same substance, the IC50 [2] was “Not Active”, the Ki [2] was “Not Active” and the IC50 [3] was “Not Active”. For the same substance, the Ki [3] was “Not Active”, the IC50 [4] was “Not Active” and the Ki [4] was “Not Active”. The IC50 [5] was “Not Active”, the Ki [5] was “Not Active” and the IC50 (D(4) dopamine receptor) was “Not Active”. The Ki (D(4) dopamine receptor) was “Not Active”, the IC50 [6] was “Not Active” and the Ki [6] was “Not Active”. For the same substance, the IC50 [7] was “Not Active”, the Ki [7] was “Not Active” and the IC50 [8] was “Not Active”. The Ki [8] was “Not Active”, the IC50 [9] was “Not Active” and the Ki [9] was “Not Active”. The IC50 [10] was “Not Active”, the Ki [10] was “Not Active” and the IC50 (Thromboxane-A synthase) was “Not Active”. The Ki (Thromboxane-A synthase) was “Not Active”, the IC50 [11] was “Not Active” and the Ki [11] was “Not Active”. The IC50 [12] was “Not Active”, the Ki [12] was “Not Active” and the IC50 (Glycine receptor) was “Not Active”. The Ki (Glycine receptor) was “Not Active”.

In the case of OXALIPLATIN, the IC50 (Histamine H2 receptor) is reported as “Not Active”, the Ki (Histamine H2 receptor) is reported as “Not Active” and the IC50 (D(3) dopamine receptor) is reported as “Not Active”. For the same substance, the Ki (D(3) dopamine receptor) was “Not Active”, the IC50 [1] was “Not Active” and the Ki [1] was “Not Active”. For the same substance, the IC50 [2] was “Not Active”, the Ki [2] was “Not Active” and the IC50 [3] was “Not Active”. For the same substance, the Ki [3] was “Not Active”, the IC50 [4] was “Not Active” and the Ki [4] was “Not Active”. For the same substance, the IC50 [5] was “Not Active”, the Ki [5] was “Not Active” and the IC50 (D(4) dopamine receptor) was “Not Active”. The Ki (D(4) dopamine receptor) was “Not Active”, the IC50 [6] was “Not Active” and the Ki [6] was “Not Active”. The IC50 [7] was “Not Active”, the Ki [7] was “Not Active” and the IC50 [8] was “Not Active”. For the same substance, the Ki [8] was “Not Active”, the IC50 [9] was “Not Active” and the Ki [9] was “Not Active”. For the same substance, the IC50 [10] was “Not Active”, the Ki [10] was “Not Active” and the IC50 (Thromboxane-A synthase) was “Not Active”. For the same substance, the Ki (Thromboxane-A synthase) was “Not Active”, the IC50 [11] was “Not Active” and the Ki [11] was “Not Active”. For the same substance, the IC50 [12] was “Not Active”, the Ki [12] was “Not Active” and the IC50 (Glycine receptor) was “Not Active”. The Ki (Glycine receptor) was “Not Active”.
